{
  "source": "patent US20110003000A1",
  "about": "“Transvaginal Delivery of Drugs” (FemmePharma Holding Company, Inc., priority 2009, published 2011)",
  "key": {"[1]": {"system": "urgency incontinence; urinary frequency, urgency and nocturia", "experiment": "Clinical case reports of transvaginal oxybutynin", "format": "in vivo, human", "conditions": "person", "experimental": "A person developed urgency incontinence two years after their laparoscopically assisted transvaginal hysterectomy. […] Two weeks later, they started applying oxybutynin (5 mg) into the vagina at bed time, instead of Ditropan XL. […] The patient used transvaginal oxybutynin (5 mg) at bed time for 6 months.\nA person with a history of chronic pelvic pain and multiple surgical procedures, including pain mapping under conscious sedation and repair of occult bilateral inguinal hernias, developed urinary frequency, urgency and nocturia. Their urine analysis and urine culture were negative for signs of urinary tract infection. Their treatment began with transvaginal oxybutynin (5 mg) once daily, at bed time, applied into the vagina."}, "[2]": {"system": "persistent urge incontinence", "conditions": "intravesical administration; eleven patients; cited from earlier work"}, "[3]": {"conditions": "5 mg into the vagina at bed time"}, "[4]": {"conditions": "5 mg into the vagina twice daily"}, "[5]": {"conditions": "transvaginal 5 mg at bed time for 6 months"}},
  "note": "Counter-ions that a name gives are not always drawn.",
  "data": [
    {"molecule": "Cc1ccc(O)c([C@H](CCN(C(C)C)C(C)C)c2ccccc2)c1", "note": "[DETROL, tolterodine tartrate]", "values": [
      {"measurement": "improvement of urgency incontinence", "setting": "[1]; 2 mg orally twice a day", "result": "slight improvement"}
    ]},
    {"molecule": "CCN(CC)CC#CCOC(=O)C(O)(c1ccccc1)C1CCCCC1", "note": "(stereo not shown) [oxybutynin chloride]", "values": [
      {"measurement": "patients reporting improvement and becoming totally continent", "setting": "[2]", "result": "Ten out of eleven"},
      {"measurement": "side effects", "setting": "[2]", "result": "no side effects were observed"}
    ]},
    {"molecule": "CCN(CC)CC#CCOC(=O)C(O)(c1ccccc1)C1CCCCC1", "note": "(stereo not shown) [oxybutynin]", "values": [
      {"measurement": "side effects", "setting": "[1]; [3]", "result": "did not experience any noticeable side effects"},
      {"measurement": "urgency symptoms", "setting": "[1]; [3]", "result": "improved remarkably"},
      {"measurement": "improvement of symptoms", "setting": "[1]; [4]", "result": "remarkable improvement"},
      {"measurement": "side effects", "setting": "[1]; [4]", "result": "no significant side effects"},
      {"measurement": "control of symptoms of urgency incontinence throughout the treatment period", "setting": "[1]; [5]", "result": "remained effective"},
      {"measurement": "side effects throughout the treatment period", "setting": "[1]; [5]", "result": "did not suffer from any side effects"},
      {"measurement": "improvement of urinary frequency, urgency and nocturia", "setting": "[1]; transvaginal 5 mg once daily at bed time", "result": "significant improvement"}
    ]}
  ]
}
